Measured values: US20140243302A1, “BRIDGED BICYCLIC COMPOUNDS FOR THE TREATMENT OF BACTERIAL INFECTIONS” (priority 2011, published 2014)

Tests used:
Assay type in all cases: cell-based
[1] = test system: Staphylococcus aureus Smith; test: MIC assay, modified agar dilution (CLSI), S. aureus Smith; settings: for MIC: Staphylococcus aureus, agar dilution, 35° C., 16-20 hr, lowest concentration that completely inhibited growth, read-out: S_aureus_Smith_WT_MIC; for susceptibility of S. aureus Smith based on MIC interpretive standards defined by CLSI: reference antibiotics
In short: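 Strains were spotted at about 1×10^4 CFU onto compound-containing Mueller Hinton agar (two-fold series, 128-0.001 μg/mL), horse blood 5% added for pneumococcus and enterococcus. MIC read after 16-20 hr at 35 °C, following a modified CLSI agar dilution method.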

[2] = test system: Streptococcus pneumoniae IID554; test: MIC assay, modified agar dilution (CLSI), S. pneumoniae IID554; settings: for Strep_Pn_IID554_WT_MIC: agar dilution, MHA with 5% defibrinated horse blood; for susceptibility of S. pneumoniae IID554 based on MIC interpretive standards defined by CLSI: reference antibiotics
Experimental: (§1) The potency of antibacterial agents was measured using the Minimal Inhibitory Concentration (MIC) assay. The assay measures the ability of test agents to inhibit the growth of bacteria on agar-containing medium.
(§2) The bacterial test strains used were exemplified by Staphylococcus aureus Smith, Enterococcus faecium A2373, Streptococcus pneumoniae IID554, and Escherichia coli ATCC 25922. All strains were maintained as frozen stocks held at −80° C. in skim milk. Other bacterial test strains are well known to those skilled in the art and can be used for testing.
(§3) Mueller Hinton Agar (MHA BBL; Becton Dickinson and Company, Sparks, Md.) was used as the medium. MHA was supplemented with 5% defibrinated horse blood (DHB; Nippon Biotest Laboratories inc.) to support the growth of S. pneumoniae and E. faecium.
(§4) MIC values were determined using a modified agar dilution procedure described by the Clinical and Laboratory Standards Institute (CLSI; Methods for Dilution Antimicrobial Susceptibility Tests for Bacteria That Grow Aerobically; Approved Standard—Eighth Edition. CLSI document M07-A8 [ISBN 1-56238-689-1]. Clinical and Laboratory Standards Institute, 940 West Valley Road, Suite 1400, Wayne, Pa. 19087-1898 USA, 2009).
(§5) Stock solutions (6.4 mgmL) of test compounds were prepared in 100% ultrapure dimethyl sulfoxide (DMSO; source) on the day of the assay. Subsequent serial dilutions were performed to generate solutions with concentrations ranging from 6.4 to 0.0002 mgmL in 100% DMSO.
Agar medium containing test compound was prepared by adding the dilutions of antimicrobial solution to molten MHA at a temperature of 45-50° C. The agar and antimicrobial solution were mixed thoroughly, poured into petri dishes, and allowed to solidify at room temperature. The final concentration of test compounds in the MHA medium ranged from 128 to 0.001 μg/mL with two-fold dilutions. MHA plates lacking antibacterial compound were used for growth controls.
Prior to susceptibility testing, the bacterial isolates were removed from frozen storage, thawed at room temperature, sub-cultured to MHA medium and incubated overnight at 35° C. S. pneumoniae and E. faecium were subcultured on MHA supplemented with 5% DHB at 35° C. with […]. Colonies from each plate were suspended in normal saline. This suspension was adjusted to the turbidity of a 0.5 McFarland standard, 1-2×10^8 colony forming units (CFU) per mL, and diluted 100-fold to 1-2×10^6 CFUmL.
Suspensions of bacterial cultures were applied to the surface of MHA plates containing test compound as well as to a growth control plate lacking test compound using an inoculum-replicating device with 4 mm pins. The replicating device applied 5 uL of the bacterial suspension such that each spot contained approx. 1×10^4 CFU. […]

[3] = test system: Escherichia coli ATCC 25922; test: MIC assay, modified agar dilution (CLSI), E. coli ATCC 25922
Experimental: as §1, §2, §3, §4
(§6) Stock solutions (6.4 mgmL) of test compounds were prepared in 100% ultrapure dimethyl sulfoxide (DMSO; source) on the day of the assay. […]

[4] = test system: Pseudomonas aeruginosa PAO1; test: MIC assay, modified agar dilution (CLSI), P. aeruginosa PAO1
Experimental: as §1, §3, §4, §5
(§7) Agar medium containing test compound was prepared by adding the dilutions of antimicrobial solution to molten MHA at a temperature of 45-50° C. […]

[5] = test system: A_bau_IID876; test: MIC assay, modified agar dilution (CLSI), A_bau_IID876
Experimental: as §1, §3, §4, §5, §7

[6] = test system: Enterococcus faecium A2373; test: MIC assay, modified agar dilution (CLSI), E. faecium A2373; settings: reference antibiotics
Experimental: as §1, §2, §3, §4, §6

Compound	MIC [1]	Strep_Pn_IID554_WT_MIC [2]	E_coli_ATCC25922_WT_MIC [3]	P_ae_PAO1_WT_MIC [4]	A_bau_IID876_WT_MIC [5]	susceptibility of S. aureus Smith based on MIC interpretive standards defined by CLSI [1]	susceptibility of S. pneumoniae IID554 based on MIC interpretive standards defined by CLSI [2]	susceptibility of E. faecium A2373 [6]
COc1ccc2ncc(F)c(CC(O)C34CCC(NCc5ccc6c(n5)NC(=O)CO6)(CC3)CO4)c2n1.Cl (single isomer, unassigned) [Example 20a, 6-((1-(2-(3-Fluoro-6-methoxy-1,5-naphthyridin-4-yl)-1-hydroxyethyl)-2-oxabicyclo[2.2.2]octan-4-ylamino)methyl)-2H-pyrido[3,2-b][1,4]oxazin-3(4H)-one Hydrochloride]	0.063 µg/mL	0.250 µg/mL	4.00 µg/mL	16.0 µg/mL	1.00 µg/mL	–	–	–
COc1ccc2ncc(F)c(CCC34CCC(NCc5ccc6c(n5)NC(=O)CO6)(CC3)CO4)c2n1.Cl [Example 18, 6-((1-(2-(3-Fluoro-6-methoxy-1,5-naphthyridin-4-yl)ethyl)-2-oxabicyclo[2.2.2]octan-4-ylamino)methyl)-2H-pyrido[3,2-b][1,4]oxazin-3(4H)-one Hydrochloride]	0.016 µg/mL	0.0630 µg/mL	1.00 µg/mL	4.00 µg/mL	0.500 µg/mL	–	–	–
CC(=O)NC[C@H]1CN(c2ccc(N3CCOCC3)c(F)c2)C(=O)O1 [linezolid, reference compound]	–	–	–	–	–	susceptible	susceptible	susceptible
CN[C@H](CC(C)C)C(=O)N[C@H]1C(=O)N[C@@H](CC(N)=O)C(=O)N[C@H]2C(=O)N[C@H]3C(=O)N[C@H](C(=O)N[C@H](C(=O)O)c4cc(O)cc(O)c4-c4cc3ccc4O)[C@H](O)c3ccc(c(Cl)c3)Oc3cc2cc(c3O[C@@H]2O[C@H](CO)[C@@H](O)[C@H](O)[C@H]2O[C@H]2C[C@](C)(N)[C@H](O)[C@H](C)O2)Oc2ccc(cc2Cl)[C@H]1O [vancomycin, reference compound]	–	–	–	–	–	susceptible	susceptible	resistant
